Data taken from patent publication US20230257396A1, “MACROCYCLES AND THEIR USE” (BLOSSOMHILL THERAPEUTICS, INC., priority 2020, published 2023).
Residue numbers refer to the chain shown, from its start.

How the values were obtained:
Test in all cases: KINOMEscan kinase binding assay (Eurofins/DiscoveRx), % Ctrl
kinases [1] = molecular target: T1, kinases (Homo sapiens, UniProt P36888, R834Q)
T1 construct: purchased Eurofins/DiscoveRx; host or cells: E. coli BL21-derived host (T7 phage display) for most kinases; HEK-293 for the rest
T1 sequence (P36888 27-993 R834Q): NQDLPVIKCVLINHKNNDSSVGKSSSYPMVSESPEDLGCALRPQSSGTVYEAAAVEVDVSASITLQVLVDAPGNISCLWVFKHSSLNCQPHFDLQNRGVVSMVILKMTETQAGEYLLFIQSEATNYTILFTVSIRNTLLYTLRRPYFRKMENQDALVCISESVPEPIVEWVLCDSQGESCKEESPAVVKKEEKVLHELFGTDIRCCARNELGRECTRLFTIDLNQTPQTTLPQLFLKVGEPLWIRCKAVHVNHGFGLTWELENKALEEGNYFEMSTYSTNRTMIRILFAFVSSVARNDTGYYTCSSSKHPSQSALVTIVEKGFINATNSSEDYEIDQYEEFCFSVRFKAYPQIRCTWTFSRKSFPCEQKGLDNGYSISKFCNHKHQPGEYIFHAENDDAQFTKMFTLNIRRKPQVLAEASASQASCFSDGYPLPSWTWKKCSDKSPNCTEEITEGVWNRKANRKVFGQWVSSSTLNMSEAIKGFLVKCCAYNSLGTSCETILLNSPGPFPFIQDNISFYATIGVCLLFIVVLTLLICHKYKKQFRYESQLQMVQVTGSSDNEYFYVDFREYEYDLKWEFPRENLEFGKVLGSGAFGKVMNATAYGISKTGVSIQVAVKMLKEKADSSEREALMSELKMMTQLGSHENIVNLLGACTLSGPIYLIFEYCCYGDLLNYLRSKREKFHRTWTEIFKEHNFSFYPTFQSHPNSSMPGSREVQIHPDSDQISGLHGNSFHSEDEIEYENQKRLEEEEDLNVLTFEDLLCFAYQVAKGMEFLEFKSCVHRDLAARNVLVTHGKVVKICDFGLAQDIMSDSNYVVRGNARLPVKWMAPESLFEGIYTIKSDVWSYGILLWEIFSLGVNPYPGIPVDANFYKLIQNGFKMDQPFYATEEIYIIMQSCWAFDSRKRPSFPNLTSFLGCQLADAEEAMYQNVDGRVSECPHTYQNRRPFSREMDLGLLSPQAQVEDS
Procedure, shortened: (§1)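 Read-out is qPCR of kinase eluted from ligand-coated streptavidin beads after 1 h room-temperature competition with test compound. Values are % Ctrl at the tested concentration, lower meaning tighter binding.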

kinases [2] = molecular target: T2, kinases (Homo sapiens, UniProt P00533, G719S)
T2 construct: purchased Eurofins/DiscoveRx; host or cells: E. coli BL21-derived host (T7 phage display) for most kinases; HEK-293 for the rest
Procedure, shortened: as §1

kinases [3] = molecular target: T3, kinases (Homo sapiens, UniProt P00533, G719C)
T3 construct: purchased Eurofins/DiscoveRx; host or cells: E. coli BL21-derived host (T7 phage display) for most kinases; HEK-293 for the rest
Procedure, shortened: as §1

kinases [4] = molecular target: T4, kinases (Homo sapiens, UniProt P36888, D835V)
T4 construct: purchased Eurofins/DiscoveRx; host or cells: E. coli BL21-derived host (T7 phage display) for most kinases; HEK-293 for the rest
T4 sequence (P36888 27-993 D835V): T1 sequence (P36888 27-993 R834Q) with Q808R, D809V
Procedure, shortened: as §1

kinases [5] = molecular target: T5, kinases (Homo sapiens, UniProt P10721, V559D/V654A)
T5 construct: purchased Eurofins/DiscoveRx; host or cells: E. coli BL21-derived host (T7 phage display) for most kinases; HEK-293 for the rest
Procedure, shortened: as §1

kinases [6] = molecular target: T6, kinases (Homo sapiens, UniProt P00533, DEL752-759)
T6 construct: purchased Eurofins/DiscoveRx; host or cells: E. coli BL21-derived host (T7 phage display) for most kinases; HEK-293 for the rest
Procedure, shortened: as §1

[7] = 1 μM; target EGFR(S752-I759del)

T5 sequence (P10721 26-976 V559D/V654A): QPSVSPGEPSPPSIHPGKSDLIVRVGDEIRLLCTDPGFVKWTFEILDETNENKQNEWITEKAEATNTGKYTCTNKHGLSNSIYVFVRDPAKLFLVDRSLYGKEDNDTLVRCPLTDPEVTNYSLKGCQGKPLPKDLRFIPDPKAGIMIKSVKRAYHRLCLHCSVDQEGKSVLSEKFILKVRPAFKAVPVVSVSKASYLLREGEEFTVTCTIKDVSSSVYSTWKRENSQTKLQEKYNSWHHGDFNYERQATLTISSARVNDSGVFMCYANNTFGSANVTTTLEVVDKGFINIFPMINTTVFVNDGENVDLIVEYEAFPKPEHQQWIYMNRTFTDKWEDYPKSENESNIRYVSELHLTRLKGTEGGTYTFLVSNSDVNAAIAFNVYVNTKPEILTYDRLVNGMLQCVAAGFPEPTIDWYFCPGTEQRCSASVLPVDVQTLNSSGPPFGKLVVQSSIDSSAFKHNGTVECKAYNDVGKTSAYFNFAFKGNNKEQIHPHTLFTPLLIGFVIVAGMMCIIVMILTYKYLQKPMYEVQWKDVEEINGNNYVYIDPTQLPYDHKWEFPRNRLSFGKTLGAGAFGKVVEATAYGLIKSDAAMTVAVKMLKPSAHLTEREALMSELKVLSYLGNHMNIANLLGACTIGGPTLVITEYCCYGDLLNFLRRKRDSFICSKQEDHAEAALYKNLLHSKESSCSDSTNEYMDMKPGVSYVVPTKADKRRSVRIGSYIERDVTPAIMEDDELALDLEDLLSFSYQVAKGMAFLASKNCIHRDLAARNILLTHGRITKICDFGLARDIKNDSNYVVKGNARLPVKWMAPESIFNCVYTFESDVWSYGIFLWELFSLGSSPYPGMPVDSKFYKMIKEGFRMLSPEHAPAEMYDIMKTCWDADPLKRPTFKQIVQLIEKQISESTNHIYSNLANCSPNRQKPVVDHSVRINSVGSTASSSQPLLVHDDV

SMILES	% Ctrl, FLT3(R834Q) (kinases [1]; target FLT3(R834Q); 1 μM) [% Ctrl]	% Ctrl, EGFR(G719S) (kinases [2]; target EGFR(G719S); 1 μM) [% Ctrl]	% Ctrl, EGFR(G719C) (kinases [3]; target EGFR(G719C); 1 μM) [% Ctrl]	% Ctrl, FLT3(D835V) (kinases [4]; target FLT3(D835V); 1 μM) [% Ctrl]	% Ctrl, KIT(V559D, V654A) (kinases [5]; target KIT(V559D, V654A); 1 μM) [% Ctrl]	% Ctrl, EGFR(S752-I759del) (kinases [6]; target EGFR(S752-I759del); 1 μM) [% Ctrl]	% Ctrl, FLT3(R834Q) (kinases [1]; 1 μM; target FLT3(R834Q)) [% Ctrl]	% Ctrl, EGFR(G719S) (kinases [2]; 1 μM; target EGFR(G719S)) [% Ctrl]	% Ctrl, EGFR(G719C) (kinases [3]; 1 μM; target EGFR(G719C)) [% Ctrl]	% Ctrl, FLT3(D835V) (kinases [4]; 1 μM; target FLT3(D835V)) [% Ctrl]	% Ctrl, KIT(V559D, V654A) (kinases [5]; 1 μM; target KIT(V559D, V654A)) [% Ctrl]	% Ctrl, EGFR(S752-I759del) (kinases [6]; [7]) [% Ctrl]
CN1CCSCCOc2cc3c(cc2Cl)NC(=O)/C3=C\c2[nH]ccc2C1=O [Ex. 153]	19	45	49	0.3	13	100	–	–	–	–	–	–
Cc1cc2c([nH]1)/C=C1\C(=O)Nc3ccc(cc31)-c1cnn(C)c1OCCCN(C)C2=O [Ex. 166, [3a(4)Z]-9,14-dimethyl-9,10,11,12-tetrahydro-14H-1,17-(ethanediylidene)pyrazolo[4,3-n]dipyrrolo[3,2-g:3′,4′-j][1,5]oxazacyclopentadecine-3,8(2H,5H)-dione]	–	–	–	–	–	–	2.1	99	98	1.8	43	93
Cc1cc2c([nH]1)/C=C1\C(=O)Nc3cc(Cl)c(cc31)SCCOCCN(C)C2=O [Ex. 169, [16a(17)Z]-19-chloro-5-methyl-6,7,9,10-tetrahydro-1H-12,14-(ethanediylidene)dipyrrolo[3,4-g:2′,3′-j][1,4,13]oxathiazacyclopentadecine-4,16(5H,15H)-dione]	–	–	–	–	–	–	5.9	88	100	0	13	61

The remaining lines, values ahead:

% Ctrl, FLT3(R834Q) (kinases [1]; target FLT3(R834Q); 1 μM) [% Ctrl]	% Ctrl, EGFR(G719S) (kinases [2]; target EGFR(G719S); 1 μM) [% Ctrl]	% Ctrl, EGFR(G719C) (kinases [3]; target EGFR(G719C); 1 μM) [% Ctrl]	% Ctrl, FLT3(D835V) (kinases [4]; target FLT3(D835V); 1 μM) [% Ctrl]	% Ctrl, KIT(V559D, V654A) (kinases [5]; target KIT(V559D, V654A); 1 μM) [% Ctrl]	% Ctrl, EGFR(S752-I759del) (kinases [6]; target EGFR(S752-I759del); 1 μM) [% Ctrl]	% Ctrl, FLT3(R834Q) (kinases [1]; 1 μM; target FLT3(R834Q)) [% Ctrl]	% Ctrl, EGFR(G719S) (kinases [2]; 1 μM; target EGFR(G719S)) [% Ctrl]	% Ctrl, EGFR(G719C) (kinases [3]; 1 μM; target EGFR(G719C)) [% Ctrl]	% Ctrl, FLT3(D835V) (kinases [4]; 1 μM; target FLT3(D835V)) [% Ctrl]	% Ctrl, KIT(V559D, V654A) (kinases [5]; 1 μM; target KIT(V559D, V654A)) [% Ctrl]	% Ctrl, EGFR(S752-I759del) (kinases [6]; [7]) [% Ctrl]	SMILES
–	–	–	–	–	–	100	58	89	23	87	81	Cc1cc2c([nH]1)/C=C1\C(=O)Nc3ccc(cc31)-c1c(noc1C(C)C)COCCN(C)C2=O [Ex. 161, [3a(4)Z]-9-methyl-16-(propan-2-yl)-10,11-dihydro-2H,13H-1,17-(ethanediylidene)[1,2]oxazolo[4,3-m]dipyrrolo[3,2-f:3′,4′-i][1,4]oxazacyclopentadecine-3,8(5H,9H)-dione]
–	–	–	–	–	–	13	74	82	1.1	27	55	CN1CCOc2cc3c(cc2Cl)NC(=O)/C3=C\c2[nH]ccc2C(=O)N(C)CC1 [Ex. 164, [16a(17)Z]-19-chloro-2,5,8-trimethyl-5,6,7,8,9,10-hexahydro-12,14-(ethanediylidene)dipyrrolo[3,2-i:3′,4′-l][1,4,7]oxadiazacyclopentadecine-4,16(1H,15H)-dione]
–	–	–	–	–	–	16	82	100	0.5	40	37	Cc1cc2c([nH]1)/C=C1\C(=O)Nc3cnc(cc31)-c1cnn(C)c1CN(C)CCN(C)C2=O [Ex. 172, [3a(4)Z]-6,9,12,14-tetramethyl-9,10,11,12,13,14-hexahydro-17,1-(azenometheno)pyrazolo[4,3-m]dipyrrolo[3,2-f:3′,4′-i][1,4]diazacyclopentadecine-3,8(2H,5H)-dione]
